# Measurements as given in US20060069132A1, “Azolecarboxamide herbicides” (priority 2004, published 2006).
# Tests used:
# [1] = tested on: barnyardgrass; experiment: Test B pre-/postemergence herbicide test; assay type: in vivo, Echinochloa crus-galli; settings: for Barnyardgrass plant response rating: scale 0 (no effect) to 100 (complete control)
# In short: (§1)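 Pre: seeds sown, then sprayed. Post: 1–4-leaf plants (2–18 cm) sprayed at the same time. Paddy: flooded, treated at 2-leaf stage. Formulation: non-phytotoxic solvent with surfactant. Greenhouse 13–15 days; visual 0–100 score relative to controls.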
# [2] = tested on: Surinam grass; experiment: Test B pre-/postemergence herbicide test; assay type: in vivo, Urochloa decumbens; settings: for Surinam Grass plant response rating: scale 0 (no effect) to 100 (complete control)
# In short: (§2)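 Formulation: non-phytotoxic solvent mix with surfactant. Timing: preemergence on seed and postemergence on 2–18 cm plants, applied concurrently. Readout after 13–15 d greenhouse: visual 0–100 control rating against controls.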
# [3] = tested on: cocklebur; experiment: Test B pre-/postemergence herbicide test; assay type: in vivo, Xanthium strumarium; settings: for Cocklebur plant response rating: scale 0 (no effect) to 100 (complete control)
# In short: as §1
# [4] = tested on: corn; experiment: Test B pre-/postemergence herbicide test; assay type: in vivo, Zea mays; settings: for Corn plant response rating: scale 0 (no effect) to 100 (complete control)
# In short: as §2
# [5] = tested on: large crabgrass; experiment: Test B pre-/postemergence herbicide test; assay type: in vivo, Digitaria sanguinalis; settings: for Crabgrass, Large plant response rating: scale 0 (no effect) to 100 (complete control)
# In short: as §2
# [6] = tested on: giant foxtail; experiment: Test B pre-/postemergence herbicide test; assay type: in vivo, Setaria faberi; settings: for Foxtail, Giant plant response rating: scale 0 (no effect) to 100 (complete control)
# In short: as §2
# [7] = tested on: lambsquarters; experiment: Test B pre-/postemergence herbicide test; assay type: in vivo, Chenopodium album; settings: for Lambsquarters plant response rating: scale 0 (no effect) to 100 (complete control)
# In short: as §2
# [8] = tested on: morningglory; experiment: Test B pre-/postemergence herbicide test; assay type: in vivo, Ipomoea coccinea; settings: for Morningglory plant response rating: scale 0 (no effect) to 100 (complete control)
# In short: as §1
# [9] = tested on: pigweed; experiment: Test B pre-/postemergence herbicide test; assay type: in vivo, Amaranthus retroflexus; settings: for Pigweed plant response rating: scale 0 (no effect) to 100 (complete control)
# In short: as §2
# [10] = tested on: velvetleaf; experiment: Test B pre-/postemergence herbicide test; assay type: in vivo, Abutilon theophrasti; settings: for Velvetleaf plant response rating: scale 0 (no effect) to 100 (complete control)
# In short: as §2
# [11] = tested on: blackgrass; experiment: Test B postemergence herbicide test; assay type: in vivo, Alopecurus myosuroides; settings: scale 0 (no effect) to 100 (complete control)
# In short: (§3)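 Read-out: visual comparison with controls, scored 0 to 100, where 100 means complete control and 0 no effect. Formulated chemicals were applied postemergence to plants 2–18 cm tall (1- to 4-leaf), or to flooded-paddy plants at the 2-leaf stage, then held 13 to 15 days under glass.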
# [12] = tested on: wheat; experiment: Test B postemergence herbicide test; assay type: in vivo, Triticum aestivum; parameters: key to Wheat plant response rating: 0 = no effect, 100 = complete control
# In short: as §3
# [13] = tested on: wild oat; experiment: Test B postemergence herbicide test; assay type: in vivo, Avena fatua; settings: scale 0 (no effect) to 100 (complete control)
# In short: as §3
# [14] = tested on: rice; experiment: Test B flooded paddy test; assay type: in vivo, Oryza sativa; settings: 1000 g ai/ha, scale 0 to 100 (0 no effect, 100 complete control)
# In short: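 Scale 0–100: zero equals no visible effect, 100 complete control, judged by eye relative to controls. Timing: 13 to 15 days in greenhouse post-treatment. Growth stage at spraying: two leaves (paddy) or one to four leaves, 2–18 cm (postemergence).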
# [15] = tested on: small flower umbrella sedge; experiment: Test B flooded paddy test; assay type: in vivo, Cyperus difformis; settings: 1000 g ai/ha, scale 0 to 100 (0 no effect, 100 complete control)
# In short: as §3
# [16] = tested on: ducksalad; experiment: Test B flooded paddy test; assay type: in vivo, Heteranthera limosa; settings: 1000 g ai/ha, scale 0 to 100 (0 no effect, 100 complete control)
# In short: as §3
# [17] = tested on: barnyardgrass; experiment: Test B flooded paddy test; assay type: in vivo, Echinochloa crus-galli; settings: 1000 g ai/ha, scale 0 to 100 (0 no effect, 100 complete control)
# In short: as §3
# [18] = tested on: rice; experiment: Test C flooded paddy test; assay type: in vivo, Oryza sativa
# In short: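 Injury scored visually against controls on a 0 (no effect) to 100 (complete control) scale, 12 to 14 days after treatment in greenhouse. Flooded paddy plants treated at 2-leaf stage; postemergence plants at 1- to 4-leaf stage, 2 to 18 cm tall.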
# [19] = tested on: smallflower umbrella sedge; experiment: Test C flooded paddy test; assay type: in vivo, Cyperus difformis
# [20] = tested on: ducksalad; experiment: Test C flooded paddy test; assay type: in vivo, Heteranthera limosa
# [21] = tested on: barnyardgrass; experiment: Test C flooded paddy test; assay type: in vivo, Echinochloa crus-galli
# In short: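 Postemergence sprays were applied to plants 2 to 18 cm tall (1- to 4-leaf stage); in the flooded paddy test, barnyardgrass was grown to the 2-leaf stage. After 12 to 14 days in a greenhouse, injury was visually rated against untreated controls on a 0–100 scale (100 = complete control).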
# [22] = 125 g ai/ha, 0 is no effect, 100 is complete control, preemergence
# [23] = 125 g ai/ha, visual rating, postemergence
# [24] = 125 g ai/ha, scale 0 to 100 (0 no effect, 100 complete control)
# [25] = 250 g ai/ha, scale of 0 to 100, 0 is no effect, 100 is complete control
# [26] = 500 g ai/ha, visual rating after 12 to 14 days, scale 0 to 100 (0 no effect, 100 complete control)
structure (smiles),measurement,setting,value
C#CCNC(=O)c1cccc(NC(=O)c2nn(C(C)(C)C)nc2C)c1 [Compound 394],"Plant response rating (0 to 100 scale), Barnyardgrass",[1]; [22],30
same,Barnyardgrass plant response rating,[1]; [23],0
same,Barnyardgrass plant response rating,"[1]; Postemergence, 500 g ai/ha",10
same,"Plant response rating (0 to 100 scale), Surinam Grass",[2]; [22],10
same,Surinam Grass plant response rating,[2]; [23],10
same,Surinam Grass plant response rating,"[2]; Postemergence, 500 g ai/ha",20
same,"Plant response rating (0 to 100 scale), Cocklebur",[3]; [22],20
same,Cocklebur plant response rating,[3]; [23],10
same,Cocklebur plant response rating,"[3]; Postemergence, 500 g ai/ha",20
same,"Plant response rating (0 to 100 scale), Corn",[4]; [22],0
same,Corn plant response rating,[4]; [23],0
same,Corn plant response rating,"[4]; Postemergence, 500 g ai/ha",10
same,"Plant response rating (0 to 100 scale), Crabgrass, Large",[5]; [22],40
same,"Crabgrass, Large plant response rating",[5]; [23],10
same,"Crabgrass, Large plant response rating","[5]; Postemergence, 500 g ai/ha",20
same,"Plant response rating (0 to 100 scale), Foxtail, Giant",[6]; [22],10
same,"Foxtail, Giant plant response rating",[6]; [23],20
same,"Foxtail, Giant plant response rating","[6]; Postemergence, 500 g ai/ha",30
same,"Plant response rating (0 to 100 scale), Lambsquarters",[7]; [22],10
same,Lambsquarters plant response rating,[7]; [23],30
same,Lambsquarters plant response rating,"[7]; Postemergence, 500 g ai/ha",60
same,"Plant response rating (0 to 100 scale), Morningglory",[8]; [22],0
same,Morningglory plant response rating,[8]; [23],20
same,Morningglory plant response rating,"[8]; Postemergence, 500 g ai/ha",20
same,"Plant response rating (0 to 100 scale), Pigweed",[9]; [22],10
same,Pigweed plant response rating,[9]; [23],30
same,Pigweed plant response rating,"[9]; Postemergence, 500 g ai/ha",60
same,"Plant response rating (0 to 100 scale), Velvetleaf",[10]; [22],0
same,Velvetleaf plant response rating,[10]; [23],10
same,Velvetleaf plant response rating,"[10]; Postemergence, 500 g ai/ha",30
same,Blackgrass plant response rating,[11]; [23],0
same,Blackgrass plant response rating,"[11]; Postemergence, 500 g ai/ha",20
same,Wheat plant response rating,"[12]; 125 g ai/ha, visual rating, scale 0 (no effect) to 100 (complete control), postemergence",0
same,Wheat plant response rating,"[12]; 500 g ai/ha, scale 0 to 100, 0 no effect, 100 complete control, preemergence",20
same,Wheat plant response rating,"[12]; Postemergence, 500 g ai/ha, scale 0 (no effect) to 100 (complete control)",0
same,"Oat, Wild plant response rating",[13]; [23],0
same,"Oat, Wild plant response rating","[13]; Postemergence, 500 g ai/ha",0
same,Rice plant response rating,[14],60
same,"Sedge, Umbrella plant response rating",[15],90
same,Ducksalad plant response rating,[16],80
same,Barnyardgrass plant response rating,[17],70
same,Rice plant response rating,"[18]; 62 g ai/ha, scale 0 to 100",0
same,Rice plant response rating,[18]; [24],0
same,Rice plant response rating,[18]; [25],45
same,"Plant response rating, Rice",[18]; [26],60
same,"Sedge, Umbrella plant response rating","[19]; 62 g ai/ha, scale 0 to 100",0
same,"Sedge, Umbrella plant response rating",[19]; [24],35
same,"Sedge, Umbrella plant response rating",[19]; [25],60
same,"Plant response rating, Sedge, Umbrella",[19]; [26],70
same,Ducksalad plant response rating,"[20]; 62 g ai/ha, scale 0 to 100",0
same,Ducksalad plant response rating,[20]; [24],0
same,Ducksalad plant response rating,[20]; [25],10
same,"Plant response rating, Ducksalad",[20]; [26],45
same,Barnyardgrass plant response rating,"[21]; 62 g ai/ha, scale 0 to 100 (0 no effect, 100 complete control)",0
same,Barnyardgrass plant response rating,[21]; [24],0
same,Barnyardgrass plant response rating,[21]; [25],0
same,"Plant response rating, Barnyardgrass",[21]; [26],20
